The values that follow come from ChEMBL document CHEMBL5223106, “Targeting non-alcoholic fatty liver disease: Design, X-ray co-crystal structure and synthesis of 'first-in-kind' inhibitors of serine/threonine kinase25” (Bioorg Med Chem Lett, 2022).

A word on the IC50: it is the concentration that gives 50% inhibition. For orientation: solubility means the dissolved amount per volume that the medium holds. The low end stands for a poorly soluble substance, the high end for a readily soluble substance. One may read the efflux ratio as a quotient of directional permeabilities that is used to spot active efflux. Usually fraction unbound stands for the share of the substance not bound to proteins or other matrix.

Calls of active or inactive are those of the source. The rule behind the calls is not given here.

Data set [1] has as its target T1, Serine/threonine-protein kinase 25 (Homo sapiens, UniProt O00506). As to the kind of experiment: Inhibition of STK25 (unknown origin) by FRET assay.
Data set [2] concerns the target T1, Serine/threonine-protein kinase 25. As to the kind of experiment: Inhibition of STK25 (unknown origin).
Target sequence in this assay (O00506 whole entry): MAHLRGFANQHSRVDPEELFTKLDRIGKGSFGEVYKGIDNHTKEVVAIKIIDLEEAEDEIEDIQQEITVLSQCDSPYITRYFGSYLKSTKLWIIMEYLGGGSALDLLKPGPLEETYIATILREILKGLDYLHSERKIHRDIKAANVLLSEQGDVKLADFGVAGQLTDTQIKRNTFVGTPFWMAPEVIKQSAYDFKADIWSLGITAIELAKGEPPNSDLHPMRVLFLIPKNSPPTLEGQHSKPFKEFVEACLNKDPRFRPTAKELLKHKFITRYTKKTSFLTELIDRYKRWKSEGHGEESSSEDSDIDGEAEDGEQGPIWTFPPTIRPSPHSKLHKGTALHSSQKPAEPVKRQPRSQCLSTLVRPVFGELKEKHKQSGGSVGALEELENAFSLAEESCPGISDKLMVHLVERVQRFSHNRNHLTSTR
Data set [3] in a line: Cytotoxicity against human HepG2 cells assessed as cell growth inhibition. The data set is classed as toxicity, cell-based.
Data set [4] can be described thus: Clearance in mouse microsomes. It is filed as ADME, Microsome.
A short description of data set [5]: Solubility of compound. It is filed as physicochemical.
The nature of data set [6]: Permeability of the compound in human Caco-2 cells at 10 uM. It is filed as ADME, cell-based. The settings on record: caco-2, 10 µM. (In general: Caco-2 cells form a polarised layer with tight junctions and transporters.)
A short description of data set [7]: Clearance in human microsomes. The data set is classed as ADME, Microsome.
A short description of data set [8]: Efflux ratio of permeability across basolateral to apical side over apical to basolateral side in human Caco-2 cells. It is filed as ADME, cell-based.
For data set [9], the target named is T1, Serine/threonine-protein kinase 25. As to the kind of experiment: Inhibition of STK25 (unknown origin) by cellular target engagement assay.
Target sequence in this assay (O00506 whole entry): as above
Data set [10] in a line: Plasma protein binding in mouse plasma assessed as free fraction. The data set is classed as ADME, cell-free.

For the molecule `CC(C)(C)c1cc(NC(=O)c2nnn3c2CO[C@H](Cc2ccccc2)C3)n[nH]1`, the inhibition entry in data set [1] is “inactive”.
`CC(C)(C)c1cc(NC(=O)c2ccc(C(=O)N3CCCC3)cc2)n[nH]1` gave an IC50 in data set [1] of 5160 nM.
Turning to `O=C(Nc1c[nH]nc1-c1nc2cc(CN3CCOCC3)ccc2[nH]1)NC1CC1` [AT-9283], in data set [2], the IC50 is 460 nM.
The molecule `CCCCOc1ccc(C(=O)Nc2cc(C(C)(C)C)[nH]n2)cc1` had an IC50 in data set [1] of 616 nM.
With `CC(C)(C)c1cc(NC(=O)c2ccc(S(=O)(=O)N3CCCC3)cc2)n[nH]1`, the values for the IC50 in [3], in data set [1] and in [9] were greater than 100 µM, 228 nM and 211 nM, respectively. The CL in [4] was determined as 145 mL/min/g; in data set [7], 75 mL/min/g. Also, the solubility in data set [5] is greater than 100 µM. The permeability in [6] worked out at 100%. Besides, the efflux ratio in [8] was 1. Besides, in data set [10], the free fraction (fraction unbound) came to 0.26.
In the case of `Cc1ccc(C(=O)Nc2cc(C(C)(C)C)n[nH]2)cc1-n1cc(-c2cncc(N3CCOCC3)c2)nn1`, the IC50 in data set [2] came out at 12 nM.
As to `CC(C)(C)c1cc(NC(=O)c2nnn3c2CO[C@@H](c2ccccc2)C3)n[nH]1`, in data set [1], the inhibition result is “inactive”.
Turning to `CC(C)(C)c1cc(NC(=O)c2ccc(S(=O)(=O)NC3CCCC3)cc2)n[nH]1`, it took 865 nM to reach half-maximal inhibition in data set [1] (IC50).
Regarding `CC(C)(C)c1cc(NC(=O)c2nnn3c2CO[C@H](c2ccccc2)C3)n[nH]1`, the inhibition entry in data set [1] is “inactive”.
Still for that read-out and setting: for `CC(C)(C)c1cc(NC(=O)c2nnn3c2CO[C@@H](Cc2ccccc2)C3)n[nH]1` the value was “inactive”.
